Test results as given in publication PMC11676896, “Protective Action of Cannabidiol on Tiamulin Toxicity in Humans—In Vitro Study” (International Journal of Molecular Sciences, 2024).
Where a name gives a salt, the structure may show the parent alone.

Key:
Assay in all cases: MTT assay (mitochondrial activity)
Type in all cases: cell-based, human
HepG2 cells = details: HepG2, 72 h
Method: (§1) The cytotoxic potential of the veterinary drug and its mixtures with cannabidiol at two non-toxic concentrations: 1.56 and 3.15 µg/mL, on the human SH-SY5Y, HepG2 and HEK 293 cell lines was assessed by decreased viability of the cells within five biochemical endpoints: mitochondrial activity and lysosomal activity (MTT assays, reducing the tetrazolium dye MTT 3-(4,5-dimethylthiazol-2-yl)-2,5-diphenyltetrazolium bromide and neutral red uptake (NRU) assays), total protein content (TPC assay), cellular membrane integrity (leakage lactate dehydrogenase (LDH) assay) and DNA synthesis (the bromodeoxyuridine/5-bromo-2′-deoxyuridine incorporation into the DNA cells (BrdU) assay) after 72 h exposition. Data obtained from the measurement of the optical density in these assays were transformed to percentages in relation to the negative control group (0.1% DMSO in medium), considered to be 100% for the MTT, NRU, TPC and BrdU assays and 0% for the LDH assay. 1% Trition-X 100 solution in medium was used as the positive controls, (Figure 3).
(§2) The human neuroblastoma (SH-SY5H), hepatoma (HepG2) and kidney cells (HEK 293) cells were purchased from the American Type Culture Collection: ATCCCRL-2266,ATCC HB-8065 and ATCC CRL-1573, respectively. These cells were cultured in Minimum Essential Medium Eagle (MEME) (ATCC). The media were supplemented with 10% FBS, 1% L-glutamine (and 1% antibiotic solution (P4333 Sigma). The cells were maintained in 75 cm^2 cell culture flasks (NUNC) in a humidified incubator at 37 °C in an atmosphere of 5% CO2. The medium was refreshed every two or three days, and the cells were subcultured by 0.25% trypsin–0.02% EDTA after reaching 70–80% confluence. Single cell suspensions were prepared and adjusted to a density of 2 × 10^5 cell/mL^−1 (SH-SY5H), 1 × 10^5 cell/mL^−1 (HepG2) and 1 × 10^5 cell/mL^−1 (HEK-293). The cell suspension was transferred to 96-well plates (100 µL/well) or Lab-Tek chamber slides (8 wells) (Nunc) for staining and incubated for 24 h before the exposure to the studied compounds. Stock solutions of tiamulin fumarate and cannabidiol were prepared in DMSO and diluted with culture medium to obtain a concentration range from 1.56 to 200 µg/mL and 1.56 or 3.156 µg/mL, respectively. The selection of tiamulin concentrations was based on data from the literature and pilot studies. The final concentration of DMSO was 0.1% in the medium. The same final concentrations of the solvent and the 1% Trition-X 100 solution were used as the negative and positive controls, respectively. A total of 500 µM hydrogen peroxide (H2O2) in was used as the positive control in the DCFH assay. […] As a negative control, cultured cells were grown in the absence of studied compounds. Each concentration was tested in six replicates in three independent experiments. Cytotoxicity was assessed after 72 h of exposure of the cells to the compounds. The medium was not changed during the incubation time.
(§3) The metabolic activity of living cells was assessed by the measurement of the activity of dehydrogenases. After the incubation of the cells with the studied compounds, 10 μL of the MTT solution (5 mg/mL in PBS) was added to each well of 96-well plates and incubated. After 3 h, the MTT solution was removed, and the intracellular formazan crystals were dissolved in 100 µL DMSO. The plate was shaken for 15 min at room temperature and transferred to a Synergy 2 Multi-Mode Microplate Reader (BioTek® Instruments Inc., Winooski, VT, USA) to measure the absorbance at 570 nm, using a blank as a reference. Cytotoxicity was expressed as a percentage of the negative control (0.1% DMSO in medium).
(§4) This study was performed in three independent experiments. The obtained results are presented as mean values ± SD (standard deviation). […]

HEK 293 cells = tested on: HEK 293 cells
Method: as §1, §2, §3, §4

SH-SY5Y cells = details: 72 h
Method: as §1, §2, §3, §4

[1] = Homo sapiens, read-out: inhibited concentration (IC50), MTT

C=C[C@]1(C)C[C@@H](OC(=O)CSCCN(CC)CC)[C@]2(C)[C@H](C)CC[C@]3(CCC(=O)[C@H]32)[C@@H](C)[C@@H]1O [T, tiamulin fumarate]
tiamulin concentration that inhibited mitochondrial activity (HepG2 cells): 12.5 µg/mL | IC50 (HepG2 cells; [1]): 27.4 ± 1.3 µg/mL | tiamulin concentration that inhibited mitochondrial activity (HEK 293 cells; HEK-293, 72 h): 25 µg/mL | IC50 (HEK 293 cells; Homo sapiens, HEK293, 72 h, read-out: inhibited concentration (IC50), MTT): 27.5 ± 0.8 µg/mL | tiamulin concentration that inhibited mitochondrial activity (SH-SY5Y cells; significant (p ≤ 0.05) vs negative control): 6.25 µg/mL | IC50 (SH-SY5Y cells; [1]): 30.2 ± 1.8 µg/mL
